Results: patent US10646455B2, “Uses of hydroxyanigorufone” (TCI CO., LTD, priority 2017, dated 2020)

Key:
Assay type in all cases: cell-based
Conditions in all cases: 0.0625 μg/ml, 48 hours, control set as 1-fold, average of three experiments
ASMTL gene = experiment: qPCR expression of ASMTL gene in SHSY5Y cells
Description: (§1) SHSY5Y cells were seeded in a 6-well plate (1×10^5 cells/well) and then cultured for 24 hours. Thereafter, cells were divided into the control group and experimental group and were separately cultured in the following medium for 48 hours: • 1. Control group: DMEM medium; • 2. Experimental group: a medium the same as that of the control group, but additionally added with 0.0625 μg/ml of the compound of formula (I).
(§2) Thereafter, cells of the above groups were harvested and subjected to an RNA extraction with an RNA Extract Kit. The RNA thus obtained was then transcribed into cDNA by using a Reverse Transcriptase. Thereafter, the cDNA was subjected to a quantitative polymerase chain reaction (qPCR) by using a Step One Plus system and a KAPA SYBR FAST qPCR kit to determine the expression levels of genes related to melatonin (including TPH1, DDC, AANAT and ASMTL) in the cells of each group.
(§3) The above experimental steps were repeated three times, and then the results of the three experiments were averaged. Thereafter, the result of the control group was used as a basis (i.e., the gene expression level of the control group was set as 1-fold) to calculate the relative gene expression level of the experimental group.

TPH1 gene = experiment: qPCR expression of TPH1 gene in SHSY5Y cells
Description: as §1, §2, §3

AANAT gene = experiment: qPCR expression of AANAT gene in SHSY5Y cells
Description: as §1, §2, §3

DDC gene = experiment: qPCR expression of DDC gene in SHSY5Y cells
Description: as §1, §2, §3

O=C1C(O)=Cc2cccc3ccc(-c4ccc(O)cc4)c1c23 [compound of formula (I), hydroxyanigorufone]
significantly increased: expression level of ASMTL gene relative to control group (ASMTL gene) | expression level of TPH1 gene relative to control group (TPH1 gene) | expression level of AANAT gene relative to control group (AANAT gene) | expression level of DDC gene relative to control group (DDC gene)
